From ChEMBL document CHEMBL6071163, “The multicomponent Passerini reaction as a means of accessing diversity in structure, activity and properties: Soft and hard vanilloid/cannabinoid modulators” (Eur J Med Chem, 2024)

Legend:
[1] = target: T1, Cannabinoid receptor 2 (Homo sapiens, UniProt P34972); assay: Antagonist activity at recombinant human CB2 receptor expressed in HEK293-CNG cells assessed as cAMP accumulation incubated for 60 mins in presence of forskolin by fluorescence based analysis; format: functional, cell-based
T1 sequence (P34972 whole entry): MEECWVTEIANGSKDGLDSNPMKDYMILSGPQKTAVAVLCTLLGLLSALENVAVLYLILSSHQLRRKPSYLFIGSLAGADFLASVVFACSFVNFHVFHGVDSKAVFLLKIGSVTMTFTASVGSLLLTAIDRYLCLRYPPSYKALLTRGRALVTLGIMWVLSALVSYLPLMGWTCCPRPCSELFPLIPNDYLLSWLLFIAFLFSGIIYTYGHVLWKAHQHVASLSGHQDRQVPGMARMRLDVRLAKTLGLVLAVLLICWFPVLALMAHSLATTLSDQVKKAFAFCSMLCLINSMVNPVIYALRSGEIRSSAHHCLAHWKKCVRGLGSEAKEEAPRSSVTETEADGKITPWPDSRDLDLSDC

[2] = target: T2, Transient receptor potential cation channel subfamily V member 1 (Homo sapiens, UniProt Q8NER1); assay: Agonist activity at recombinant human TRPV1 transfected in HEK293 cells assessed as increase in intracellular Ca2+ influx by Fluo-4 NW Ca2+ dye based microfluorometric calcium flux assay
T2 sequence (Q8NER1 whole entry): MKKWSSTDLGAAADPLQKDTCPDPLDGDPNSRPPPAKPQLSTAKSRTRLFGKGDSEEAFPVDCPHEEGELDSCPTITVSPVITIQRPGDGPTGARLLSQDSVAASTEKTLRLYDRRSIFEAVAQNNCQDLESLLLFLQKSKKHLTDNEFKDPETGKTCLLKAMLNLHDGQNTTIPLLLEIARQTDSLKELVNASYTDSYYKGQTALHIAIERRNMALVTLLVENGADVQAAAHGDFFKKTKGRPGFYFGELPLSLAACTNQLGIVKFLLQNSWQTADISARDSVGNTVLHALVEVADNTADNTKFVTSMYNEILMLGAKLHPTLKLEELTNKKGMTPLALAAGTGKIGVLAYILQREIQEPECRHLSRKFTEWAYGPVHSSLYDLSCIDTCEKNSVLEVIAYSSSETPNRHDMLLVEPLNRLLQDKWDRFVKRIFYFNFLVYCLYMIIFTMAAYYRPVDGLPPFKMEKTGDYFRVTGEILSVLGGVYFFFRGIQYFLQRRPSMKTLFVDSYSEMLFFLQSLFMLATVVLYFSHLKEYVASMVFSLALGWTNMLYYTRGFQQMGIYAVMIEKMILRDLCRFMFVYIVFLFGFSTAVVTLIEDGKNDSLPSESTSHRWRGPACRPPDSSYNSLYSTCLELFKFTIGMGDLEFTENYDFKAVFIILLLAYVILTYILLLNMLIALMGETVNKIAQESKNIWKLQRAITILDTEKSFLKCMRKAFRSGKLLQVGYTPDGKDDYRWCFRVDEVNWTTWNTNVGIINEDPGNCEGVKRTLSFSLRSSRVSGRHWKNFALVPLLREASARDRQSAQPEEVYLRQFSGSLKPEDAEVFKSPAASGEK

[3] = target: Cannabinoid receptor 1 (Homo sapiens, UniProt P21554); assay: Agonist activity at recombinant human CB1 receptor expressed in HEK293-CNG cells assessed as reduction in forskolin-induced cAMP accumulation incubated for 60 mins by fluorescence based analysis; format: functional, cell-based
Cannabinoid receptor 1, sequence (P21554 whole entry): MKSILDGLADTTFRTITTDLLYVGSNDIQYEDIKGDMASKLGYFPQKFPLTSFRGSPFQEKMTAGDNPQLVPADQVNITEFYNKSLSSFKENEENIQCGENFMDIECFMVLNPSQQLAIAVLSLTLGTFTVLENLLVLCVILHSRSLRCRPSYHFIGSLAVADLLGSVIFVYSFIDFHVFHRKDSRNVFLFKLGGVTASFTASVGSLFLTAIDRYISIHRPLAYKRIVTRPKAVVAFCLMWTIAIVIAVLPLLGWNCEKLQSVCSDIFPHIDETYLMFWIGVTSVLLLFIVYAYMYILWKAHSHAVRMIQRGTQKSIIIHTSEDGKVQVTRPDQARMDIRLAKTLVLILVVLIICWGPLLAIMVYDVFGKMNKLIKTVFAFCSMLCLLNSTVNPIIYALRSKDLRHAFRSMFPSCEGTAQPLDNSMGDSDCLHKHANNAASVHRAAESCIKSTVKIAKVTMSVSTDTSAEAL

[4] = target: T1, Cannabinoid receptor 2; assay: Agonist activity at recombinant human CB2 receptor expressed in HEK293-CNG cells assessed as reduction in forskolin-induced cAMP accumulation incubated for 60 mins by fluorescence based analysis; format: functional, cell-based
[5] = target: T2, Transient receptor potential cation channel subfamily V member 1
[6] = Metabolic stability in human skin S9 fraction assessed as parent compound remaining at 5 uM incubated for 60 mins
[7] = Metabolic stability in human Fibroblast assessed as parent compound remaining at 5 uM incubated for 120 mins; settings: fibroblasts
[8] = Metabolic stability in human Keratinocytes assessed as parent compound remaining at 5 uM incubated for 120 mins
[9] = Metabolic stability in human liver S9 fraction assessed as parent compound remaining at 5 uM incubated for 60 mins
[10] = Metabolic stability in human plasma assessed as parent compound remaining at 50 uM incubated for 60 mins
[11] = Metabolic stability in human HaCaT cells assessed as parent compound remaining at 5 uM incubated for 120 mins
[12] = target: T2, Transient receptor potential cation channel subfamily V member 1; assay: Agonist activity at human TRPV1 expressed in HEK293 cells assessed as induction of current by patch clamp assay

SMILES | EC50 [2] [µM] | EC50 [3] [µM] | EC50 [4] [µM] | further results
COc1ccc(C(=O)c2c(C)n(CCN3CCOCC3)c3cc(I)ccc23)cc1 | – | – | – | IC50 [1]: 30 nM
O=C(CO)NCCO | > 100 | > 100 | > 100 | –
CCCCCC[C@H](C/C=C\CCCCCCCC(=O)OCC(=O)NCCc1cc(O)c(O)cc1I)OC(=O)Cc1ccccc1 | – | – | – | IC50 [5]: > 100 µM
C=CCNC(=O)COC(=O)CCCCCCCCCCC | 11.4 | – | – | –
C=CCNC(=O)COC(=O)CCCCCCC/C=C\C[C@@H](CCCCCC)OC(=O)Cc1ccccc1 | 15.2 | – | – | –
CCCCCCCC/C=C\CCCCCCCC(=O)OCC(=O)NC1CC1 | 0.7 | 27.9 | – | –
O=C(CO)NCCc1cc(O)c(O)cc1I | – | > 100 | > 100 | IC50 [5]: > 100 µM
C=CCNC(=O)CO | > 100 | > 100 | > 100 | –
CCCCC/C=C\C/C=C\C/C=C\C/C=C\CCCC(=O)OCC(=O)NCCO | 2.1 | 30.6 | – | remaining at 1 h, 5 µM [6]: 76%; remaining at 2 h, 5 µM [7]: 73%; remaining at 2 h, 5 µM [8]: 97%; remaining at 1 h, 5 µM [9]: 24%; remaining at 1 h, 50 µM [10]: > 99%; remaining at 2 h, 5 µM [11]: > 99%
CC(C)=CCC/C(C)=C/C(=O)OCC(=O)NC1CC1 | 33.1 | – | – | –
CCCCCC[C@H](C/C=C\CCCCCCCC(=O)OCC(=O)NC1CC1)OC(=O)Cc1ccccc1 | 2.6 | – | – | –
CCCCCCCCCCCC(=O)OCC(=O)NC1CC1 | 1.7 | – | 87.6 | remaining at 1 h, 5 µM [6]: 69%; remaining at 2 h, 5 µM [7]: 62%; remaining at 2 h, 5 µM [8]: 99%; remaining at 1 h, 5 µM [9]: 1%; remaining at 1 h, 50 µM [10]: 80%; remaining at 2 h, 5 µM [11]: 94%
CC(C)=CCC/C(C)=C/C(=O)OCC(=O)NCCO | 26.8 | – | 37.8 | EC50 [12]: 47.5 µM; remaining at 1 h, 5 µM [6]: 96%; remaining at 2 h, 5 µM [7]: 93%; remaining at 2 h, 5 µM [8]: 96%; remaining at 1 h, 5 µM [9]: 89%; remaining at 1 h, 50 µM [10]: 89%; remaining at 2 h, 5 µM [11]: 98%
CC(C)=CCC/C(C)=C/C(=O)OCC(=O)NCCc1cc(O)c(O)cc1I | – | 41.4 | 36.8 | –
C=CCNC(=O)COC(=O)CC/C(C)=C/CC/C(C)=C/CC/C=C(\C)CC/C=C(\C)CCC=C(C)C | 36.4 | – | – | –
CCCCCCCC(=O)OCC(=O)NCCc1cc(O)c(O)cc1I | – | – | > 100 | remaining at 1 h, 5 µM [6]: 27%; remaining at 2 h, 5 µM [7]: 69%; remaining at 2 h, 5 µM [8]: 85%; remaining at 1 h, 5 µM [9]: 1%; remaining at 1 h, 50 µM [10]: 13%; remaining at 2 h, 5 µM [11]: 73%; IC50 [5]: 54.2 µM
CCCCCCCC(=O)OCC(=O)NCCc1ccc(O)c(O)c1 | 10.6 | 13.9 | – | –
CC(C)=CCC/C(C)=C/C(=O)OCC(=O)NCCc1ccc(O)c(O)c1 | – | 118 | 89.9 | –
O=C(CO)NCCc1ccc(O)c(O)c1 | – | > 100 | > 100 | –
CCCCCC[C@H](C/C=C\CCCCCCCC(=O)OCC(=O)NCCO)OC(=O)Cc1ccccc1 | 3.7 | – | – | –
C=CCNC(=O)COC(=O)CCCCCCC/C=C\CCCCCCCC | 4.7 | – | – | –
CCCCC/C=C\C/C=C\C/C=C\C/C=C\CCCC(=O)OCC(=O)NCCc1ccc(O)c(O)c1 | 1 | – | – | –
CCCCCCCCCCCC(=O)OCC(=O)NCCc1cc(O)c(O)cc1I | – | – | – | IC50 [5]: 64.9 µM
CCCCC/C=C\C/C=C\C/C=C\C/C=C\CCCC(=O)OCC(=O)NC1CC1 | – | 13.8 | – | –
CC(C)=CCC/C(C)=C/CC/C(C)=C/CC/C=C(\C)CC/C=C(\C)CCC(=O)OCC(=O)NC1CC1 | 13.4 | 196 | – | –
O=C(CO)NC1CC1 | > 100 | > 100 | > 100 | –
C=CCNC(=O)COC(=O)CCC/C=C\C/C=C\C/C=C\C/C=C\CCCCC | 21.8 | 16.6 | 62 | –
CCCCCC[C@H](C/C=C\CCCCCCCC(=O)OCC(=O)NCCc1ccc(O)c(O)c1)OC(=O)Cc1ccccc1 | 3.1 | – | – | –
C=CCNC(=O)COC(=O)CCCCCCC | 23.3 | – | – | –
